How the values were obtained:
FLK-1 receptor = target: T1, FLK-1 receptor (Mus musculus, UniProt P35918); experiment: FLK-1 ELISA (kinase activity of the FLK-1 receptor in FLK-1/NIH3T3 cells, VEGF stimulated); assay type: cell-based; set-up: concentration or dose not given beside the values
T1 construct: expressed in transfected cells; host or cells: NIH3T3 C7#3
In short: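 NIH3T3 C7#3 cells expressing FLK-1 were seeded at 25.000 cells/well, serum-starved overnight in 0.1% FBS, then treated with compound for two hours at 37°C (final DMSO 0.5%) before VEGF stimulation. Receptor was captured on anti-rabbit IgG-coated ELISA plates bearing affinity-purified anti-FLK-1 antiserum.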

PDGF-R = PDGF-R (Homo sapiens, UniProt P09619); experiment: PDGF-R ELISA; assay type: cell-based
Description: A PDGF-R ELISA is described in International Patent Publication No. WO 96/40116, published December 19, 1996 by Tang et al.

MET = MET biochemical kinase assay; set-up: species or system human; concentration or dose not given beside the values
In short: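 Capture ELISA: anti-rabbit Fc coat, rabbit anti-MET cytoplasmic domain pAb, lysate MET captured, washed. Compound + kinase buffer (ATP, divalent metals). Readout anti-pTyr-HRP/TMB, colorimetric.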

Chain of PDGF-R (P09619 33-1106, species assumed): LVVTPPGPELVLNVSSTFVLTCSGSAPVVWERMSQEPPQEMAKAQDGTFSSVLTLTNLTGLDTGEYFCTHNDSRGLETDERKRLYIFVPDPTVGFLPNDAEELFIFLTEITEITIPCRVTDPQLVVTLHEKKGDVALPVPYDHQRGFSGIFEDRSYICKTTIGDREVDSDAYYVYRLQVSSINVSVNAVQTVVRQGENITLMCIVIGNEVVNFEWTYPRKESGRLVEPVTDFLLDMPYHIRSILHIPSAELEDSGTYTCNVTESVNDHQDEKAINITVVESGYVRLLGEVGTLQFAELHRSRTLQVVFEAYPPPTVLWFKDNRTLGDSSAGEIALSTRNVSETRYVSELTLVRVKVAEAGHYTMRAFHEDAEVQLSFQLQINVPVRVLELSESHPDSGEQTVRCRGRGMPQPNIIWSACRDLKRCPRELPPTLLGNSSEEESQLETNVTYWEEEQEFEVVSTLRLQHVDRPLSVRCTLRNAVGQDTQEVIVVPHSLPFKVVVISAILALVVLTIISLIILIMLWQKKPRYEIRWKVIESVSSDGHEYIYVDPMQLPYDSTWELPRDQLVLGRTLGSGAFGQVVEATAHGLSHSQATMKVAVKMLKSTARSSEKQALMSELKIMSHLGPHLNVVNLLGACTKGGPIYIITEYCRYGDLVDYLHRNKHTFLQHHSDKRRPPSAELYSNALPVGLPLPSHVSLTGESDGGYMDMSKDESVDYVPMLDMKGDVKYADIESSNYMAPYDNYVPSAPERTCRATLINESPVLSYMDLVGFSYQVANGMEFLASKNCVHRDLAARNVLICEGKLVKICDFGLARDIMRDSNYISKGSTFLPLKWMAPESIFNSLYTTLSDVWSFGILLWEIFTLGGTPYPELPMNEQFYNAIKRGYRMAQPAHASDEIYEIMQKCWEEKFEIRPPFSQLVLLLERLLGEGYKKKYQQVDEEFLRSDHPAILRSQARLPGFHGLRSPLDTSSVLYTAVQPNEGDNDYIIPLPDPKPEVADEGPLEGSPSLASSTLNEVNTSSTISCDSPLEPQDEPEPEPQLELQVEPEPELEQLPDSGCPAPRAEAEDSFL
T1 sequence (P35918 20-1345): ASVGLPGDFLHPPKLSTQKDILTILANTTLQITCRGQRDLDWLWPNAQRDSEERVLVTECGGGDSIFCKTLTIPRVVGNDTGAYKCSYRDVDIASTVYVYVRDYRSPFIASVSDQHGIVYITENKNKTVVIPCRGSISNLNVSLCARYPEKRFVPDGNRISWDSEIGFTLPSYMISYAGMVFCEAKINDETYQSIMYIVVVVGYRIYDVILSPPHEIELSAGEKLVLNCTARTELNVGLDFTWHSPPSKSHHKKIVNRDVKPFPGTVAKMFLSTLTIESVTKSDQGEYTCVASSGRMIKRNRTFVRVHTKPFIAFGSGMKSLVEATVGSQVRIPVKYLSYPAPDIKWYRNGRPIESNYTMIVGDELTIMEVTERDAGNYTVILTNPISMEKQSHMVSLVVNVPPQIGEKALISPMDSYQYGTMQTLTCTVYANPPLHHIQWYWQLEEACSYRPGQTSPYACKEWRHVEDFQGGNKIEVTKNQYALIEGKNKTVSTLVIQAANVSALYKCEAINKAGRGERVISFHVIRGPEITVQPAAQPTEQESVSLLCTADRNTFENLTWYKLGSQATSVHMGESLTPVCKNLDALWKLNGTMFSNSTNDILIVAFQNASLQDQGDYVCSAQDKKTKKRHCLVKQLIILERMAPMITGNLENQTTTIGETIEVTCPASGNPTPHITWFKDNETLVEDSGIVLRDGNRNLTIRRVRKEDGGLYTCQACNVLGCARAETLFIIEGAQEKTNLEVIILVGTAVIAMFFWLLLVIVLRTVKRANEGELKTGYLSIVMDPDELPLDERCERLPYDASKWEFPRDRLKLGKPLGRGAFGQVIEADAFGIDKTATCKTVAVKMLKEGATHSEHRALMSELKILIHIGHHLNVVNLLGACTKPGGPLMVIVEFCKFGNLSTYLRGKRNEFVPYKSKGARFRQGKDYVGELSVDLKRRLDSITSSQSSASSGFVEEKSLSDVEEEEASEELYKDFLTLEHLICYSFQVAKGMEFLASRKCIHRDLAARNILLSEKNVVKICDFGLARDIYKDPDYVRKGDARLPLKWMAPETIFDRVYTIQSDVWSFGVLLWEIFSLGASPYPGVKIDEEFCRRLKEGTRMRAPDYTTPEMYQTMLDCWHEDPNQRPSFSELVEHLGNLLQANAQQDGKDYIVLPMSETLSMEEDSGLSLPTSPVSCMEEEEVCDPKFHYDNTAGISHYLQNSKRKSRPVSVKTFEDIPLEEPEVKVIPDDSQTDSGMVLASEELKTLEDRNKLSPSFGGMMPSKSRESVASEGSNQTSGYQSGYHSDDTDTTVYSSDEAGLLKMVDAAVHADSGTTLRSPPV

Compound | Fik Kinase %Inhibition (FLK-1 receptor) [%] | PDGF Kinase %Inhibition (PDGF-R) [%] | Met Kinase % Inhibition (MET) [%]
COc1c(C)cc(C=C2C(=O)Nc3c(Br)cc(Br)cc32)cc1C [10733/A06] | -16.6 | -24.3 | 33.7
CNS(=O)(=O)c1ccc2c(c1)C(=Cc1ccc(O)c(OC)c1[N+](=O)[O-])C(=O)N2 [10733/D11] | 1.0 | -4.0 | 31.6
CNS(=O)(=O)c1ccc2c(c1)C(=Cc1cc([N+](=O)[O-])ccc1O)C(=O)N2 [10733/D10] | 2.9 | -10.1 | 22.8
O=C1Nc2ccc(CCCl)cc2C1=CC(c1cccs1)C(F)(F)F (stereo not drawn) [10732/G02] | 8.1 | 10.3 | 39.5
COc1ccc(C=C2C(=O)Nc3ccc(CCCl)cc32)cc1C(C)(C)C [10732/G05] | 17.2 | 15.4 | 15.2
CNS(=O)(=O)c1ccc2c(c1)C(=Cc1cc(C)c(OC)c(C)c1)C(=O)N2 [10733/D06] | 17.9 | 1.3 | -19.4
O=C1Nc2ccc(S(=O)(=O)N3CCOCC3)cc2C1=CC(c1cccs1)C(F)(F)F (stereo not drawn) [10732/F02] | 7.0 | -9.4 | 55.6
COc1ccc(C=C2C(=O)Nc3ccc(S(=O)(=O)Nc4ccc(C(F)(F)F)cc4)cc32)cc1C(C)(C)C [10732/E05] | 18.7 | 41.1 | 2.2
COc1c(I)cc(C=C2C(=O)Nc3ccc(S(=O)(=O)N4CCOCC4)cc32)cc1C(C)(C)C [10732/F11] | 21.9 | 77.5 | 75.2
O=C1Nc2ccc(S(=O)(=O)Nc3ccc(C(F)(F)F)cc3)cc2C1=CC(c1cccs1)C(F)(F)F (stereo not drawn) [10732/E02] | 13.1 | 4.8 | 33.3
COc1c(C(C)C)cc(C=C2C(=O)Nc3ccc(CCCl)cc32)cc1C(C)C [10732/G03] | 0.8 | 36.1 | 38.1
CNS(=O)(=O)c1ccc2c(c1)C(=Cc1cc(I)c(OCc3ccccc3)c(C(C)(C)C)c1)C(=O)N2 [10733/D02] | 3.1 | 17.6 | 63.4
COc1c([N+](=O)[O-])cc(C=C2C(=O)Nc3c(Br)cc(Br)cc32)cc1C(C)(C)C [10733/A03] | 45.0 | 23.2 | 24.9
CC(C)c1cc(C=C2C(=O)Nc3ccc(S(=O)(=O)N4CCOCC4)cc32)cc(C(C)C)c1Oc1ccccc1 [10732/F04] | 16.2 | 23.5 | 57.2
COc1c(C)cc(C=C2C(=O)Nc3ccc(I)cc32)cc1C [10733/B06] | 4.6 | -9.2 | 71.4
COc1c(Cl)cc(C=C2C(=O)Nc3ccc(S(=O)(=O)N4CCOCC4)cc32)cc1C(C)(C)C [10732/F09] | 25.6 | 25.5 | 79.7
CC(C)(C)c1cc(C=C2C(=O)Nc3ccc(S(=O)(=O)Nc4ccc(C(F)(F)F)cc4)cc32)cc(Cl)c1OCc1ccccc1 [10732/E10] | 16.7 | 35.6 | 1.6
COc1c(I)cc(C=C2C(=O)Nc3ccc(S(=O)(=O)Nc4ccc(C(F)(F)F)cc4)cc32)cc1C(C)(C)C [10732/E11] | 16.2 | 47.7 | 41.4
CC(C)(C)c1cc(C=C2C(=O)Nc3ccc(S(=O)(=O)N4CCOCC4)cc32)cc(Cl)c1OCc1ccccc1 [10732/F10] | 14.1 | 15.9 | 65.1
COc1c(I)cc(C=C2C(=O)Nc3ccc(CCCl)cc32)cc1C(C)(C)C [10732/G11] | 10.9 | 38.6 | 63.0
CNS(=O)(=O)c1ccc2c(c1)C(=Cc1cc(Br)cc(OC)c1O)C(=O)N2 [10733/D08] | -8.3 | 42.3 | 80.0
CNS(=O)(=O)c1ccc2c(c1)C(=Cc1cc(C)c(OCc3ccccc3)c(C)c1)C(=O)N2 [10733/D07] | -1.4 | 0.9 | -6.8

Source: patent EP1247803A2, “Indolinone compounds suitable for modulation of protein kinases” (Sugen, Inc., priority 1996, dated 1998)
